Key:
Format in all cases: cell-based, human
[1] = tested on: BT: Peripheral blood mononuclear cells, B cells (α-IgM, TCR ligands); assay: BioMAP BT system; conditions: BT system; at the compound's active concentration
Procedure: (§1) Anti-inflammatory phenotypic profiling was conducted across 12 human primary cell-based systems as part of DiscoverX's BioMAP Diversity Plus program. These systems are designed to model complex human tissue and disease biology of the vasculature, skin, lung, and inflammatory tissues. Quantitative measurements of biomarker activities across this broad panel were used to assess each biochemical's anti-inflammatory activity at four concentrations ([…] and 2.2, 6.7 and 20 μM). […] Protein-based biomarkers from activated cell systems were measured and compared with controls. Biomarker activities were annotated when 2 or more consecutive concentrations change in the same directions relative to vehicle controls, were outside of the significance envelope and had at least one concentration with an effect size>20% (log 10 ratio)>0.1.
(§2) In the first system, human primary peripheral blood mononuclear cells and venular endothelial cells were stimulated with lipopolysaccharide (LPS) and incubated with the test agent, drug control, or vehicle control for 24 hours. In the second system, peripheral blood mononuclear cells and B cells were stimulated with α-IgM and T cell receptor ligands and incubated with the test agent, drug control, or vehicle control for 24 hours. In both systems, a negative, non-stimulated system was also included.
(§3) The Diversity PLUS panel allows test agent characterization in an unbiased way across a broad set of systems modeling various human disease states. These systems are designed to model complex human tissue and disease biology of the vasculature, skin, lung, and inflammatory tissues. Quantitative measurements of 148 biomarker activities across this broad panel, along with comparative analysis of biological activities from known bioactive agents, were used to predict and compare the efficacy and function of each selected compound at selected concentrations (6.7 and/or 20 μM).
(§4) BioMAP systems are constructed with one or more primary cell types from healthy human donors, with stimuli (such as cytokines or growth factors) added to capture relevant signaling networks that naturally occur in human tissue or pathological conditions. Vascular biology is modeled in both a Th1 (3C system) and a Th2 (4H system) inflammatory environment, as well as in a Th1 inflammatory state specific to arterial smooth muscle cells (CASM3C system). Additional systems recapitulate aspects of the systemic immune response including monocyte-driven Th1 inflammation (LPS system) or T cell stimulation (SAg system), chronic Th1 inflammation driven by macrophage activation (lMphg system) and the T cell-dependent activation of B cells that occurs in germinal centers (BT system). The BE3C system (Th1) and the BF4T system (Th2) represent airway inflammation of the lung, while the MyoF system models myofibroblast-lung tissue remodeling. Lastly, skin biology is addressed in the KF3CT system modeling Th1 cutaneous inflammation and the HDF3CGF system modeling wound healing.
(§5) Each test agent generates a signature BioMAP profile that is created from the changes in protein biomarker readouts within individual system environments. Biomarker readouts (7-17 per system) are selected for therapeutic and biological relevance, are predictive for disease outcomes or specific drug effects and are validated using agents with known mechanism of action (MoA). Each readout is measured quantitatively by immune-based methods that detect protein (e.g., ELISA) or functional assays that measure proliferation and viability. BioMAP readouts are diverse and include cell surface receptors, cytokines, chemokines, matrix molecules and enzymes. In total, the Diversity PLUS panel contains 148 biomarker readouts that capture biological changes that occur within the physiological context of the particular BioMAP system. […]

[2] = tested on: LPS: Venular endothelial cells, peripheral blood mononuclear cells (TLR4 ligand); assay: BioMAP LPS system; conditions: at the compound's active concentration
Procedure: as §1, §2, §3, §4, §5

[3] = tested on: BE3C: Bronchial epithelial cells (IL-1β, IFNγ, TNFα); assay: BioMAP BE3C system; conditions: at the compound's active concentration
Description: The Diversity PLUS panel allows test agent characterization in an unbiased way across a broad set of systems modeling various human disease states. These systems are designed to model complex human tissue and disease biology of the vasculature, skin, lung, and inflammatory tissues.
as §4
Each test agent generates a signature BioMAP profile that is created from the changes in protein biomarker readouts within individual system environments. Biomarker readouts (7-17 per system) are selected for therapeutic and biological relevance, are predictive for disease outcomes or specific drug effects and are validated using agents with known mechanism of action (MoA). Each readout is measured quantitatively by immune-based methods that detect protein (e.g., ELISA) or functional assays that measure proliferation and viability. BioMAP readouts are diverse and include cell surface receptors, cytokines, chemokines, matrix molecules and enzymes.
Activated BioMAP systems were incubated with each compound for 24 to 72 hours. Protein-based biomarkers from activated cell systems were measured and compared with non-treated control systems.

## O=C(O)CNC(=O)c1ccccc1 [hippurate]
[1]
  Secreted IgG, log10 reduction vs nontreated controls: −0.21 log10
[2]
  CD40, log10 reduction vs nontreated controls: −0.11 log10
[3]
  MMP-1, log10 reduction vs nontreated controls: −0.14 log10

Source: patent publication US12427179B2, “Compositions and methods for diagnosis and treatment of neurodegenerative diseases” (EPITRACKER, INC., priority 2019, dated 2025)
